For four compounds, Ki and k2 results are on record in ChEMBL document CHEMBL1151008, “Synthesis and evaluation of 4-5-dehydro-5-fluoroaristeromycins as S-adenosyl-L-homocysteine (AdoHcy) hydrolase inhibitors” (Bioorg Med Chem Lett, 1992).

In one assay the target is T1, Adenosylhomocysteinase (Rattus norvegicus, UniProt P10760).
T1 sequence (P10760 whole entry): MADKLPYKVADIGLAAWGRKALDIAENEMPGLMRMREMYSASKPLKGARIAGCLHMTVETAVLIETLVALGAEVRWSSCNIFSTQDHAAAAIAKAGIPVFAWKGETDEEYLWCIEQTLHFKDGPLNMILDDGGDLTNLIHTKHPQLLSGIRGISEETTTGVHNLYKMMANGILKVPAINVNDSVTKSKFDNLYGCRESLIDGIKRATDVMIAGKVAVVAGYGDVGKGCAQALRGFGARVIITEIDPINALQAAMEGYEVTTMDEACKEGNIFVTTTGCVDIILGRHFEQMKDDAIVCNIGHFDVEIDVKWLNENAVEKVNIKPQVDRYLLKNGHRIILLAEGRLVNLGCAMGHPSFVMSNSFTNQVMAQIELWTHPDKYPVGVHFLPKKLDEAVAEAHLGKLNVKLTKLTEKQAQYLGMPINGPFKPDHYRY
Kind of assay: Compound was tested for its inhibitory activity against recombinant rat liver S-adenosyl-homocysteine hydrolase.

The target of assay [1] is T2, Adenosylhomocysteinase (Rattus norvegicus) (UniProt P10760).
T2 sequence (whole entry): T1 sequence (P10760 whole entry)
Description: (§1) Rate constant was evaluated against S-adenosyl-homocysteine hydrolase

Assay [2] addresses T2, Adenosylhomocysteinase (Rattus norvegicus). This is another data set of the same source.
Description: as §1

For orientation: Ki means a dissociation constant, usually derived from enzyme kinetics or from competition with a known ligand. Regarding `Nc1ncnc2c1ncn2[C@@H]1O/C(=C\F)[C@@H](O)[C@H]1O`, the Ki at Adenosylhomocysteinase was 39 nM. This compound yielded a k2 in assay [1] of 0.082 min⁻¹.
For `Nc1ncnc2c1ncn2[C@@H]1O/C(=C/F)[C@@H](O)[C@H]1O`, in that order: 40 nM and 0.05 min⁻¹.
`Nc1ncnc2c1ncn2[C@@H]1C/C(=C/F)[C@@H](O)[C@H]1O`: the Ki at Adenosylhomocysteinase amounted to 112 nM. In assay [2], the k2 was 0.031 min⁻¹.
Consider `Nc1ncnc2c1ncn2[C@@H]1C/C(=C\F)[C@@H](O)[C@H]1O`, for which, at Adenosylhomocysteinase, the inhibitory constant (Ki) amounted to 87 nM. The compound further gave a k2 in assay [1] of 0.05 min⁻¹.
